Activity calls are given as the source filed them.

Here are results for 20 molecules from ChEMBL document CHEMBL1201862, “PubChem BioAssay data set” (2004).

The target in experiment [1] is Cytochrome P450 3A4 (Homo sapiens, UniProt P08684). As to conditions: Potency.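 Note: confirmatory qHTS run detecting inhibitors and substrates of CYP3A4.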
For experiment [2], the target named is T1, Calpain-2 catalytic subunit (Sus scrofa, UniProt P43367).
T1 sequence (P43367 whole entry): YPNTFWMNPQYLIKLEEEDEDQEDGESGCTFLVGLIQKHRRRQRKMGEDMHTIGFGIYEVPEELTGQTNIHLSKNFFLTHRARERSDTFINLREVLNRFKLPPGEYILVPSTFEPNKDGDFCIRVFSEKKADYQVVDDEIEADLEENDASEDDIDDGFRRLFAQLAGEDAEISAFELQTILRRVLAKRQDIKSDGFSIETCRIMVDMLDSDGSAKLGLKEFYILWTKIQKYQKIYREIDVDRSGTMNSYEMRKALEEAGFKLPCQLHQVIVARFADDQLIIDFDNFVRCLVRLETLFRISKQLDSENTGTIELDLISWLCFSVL
In words: m-calpain protease blockers, concentration series – biochemical, fluorogenic peptide substrate, dose response (AID 1420). Type of experiment: functional.

The target of experiment [3] is T2, Caspase-3 (Homo sapiens, UniProt P42574).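 Note: Dose-response selectivity test against caspase-3 for candidate inhibitors of sentrin-specific proteases (SENPs).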
T2 sequence (P42574 whole entry): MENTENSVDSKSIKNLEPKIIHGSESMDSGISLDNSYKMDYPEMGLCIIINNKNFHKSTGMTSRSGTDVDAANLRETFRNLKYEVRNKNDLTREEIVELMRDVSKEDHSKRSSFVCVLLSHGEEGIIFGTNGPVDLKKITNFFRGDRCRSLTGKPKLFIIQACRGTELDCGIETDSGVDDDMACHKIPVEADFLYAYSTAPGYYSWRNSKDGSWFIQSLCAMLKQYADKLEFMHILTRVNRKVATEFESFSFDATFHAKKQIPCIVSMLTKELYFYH
Type of experiment: functional.

Experiment [4] concerns the target T3, Sentrin-specific protease 7 (Homo sapiens, UniProt Q9BQF6).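 Note: Luminescence-based dose-response confirmation of ultra-high-throughput screening hits, measuring inhibition of SENP7.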
T3 sequence (Q9BQF6 whole entry): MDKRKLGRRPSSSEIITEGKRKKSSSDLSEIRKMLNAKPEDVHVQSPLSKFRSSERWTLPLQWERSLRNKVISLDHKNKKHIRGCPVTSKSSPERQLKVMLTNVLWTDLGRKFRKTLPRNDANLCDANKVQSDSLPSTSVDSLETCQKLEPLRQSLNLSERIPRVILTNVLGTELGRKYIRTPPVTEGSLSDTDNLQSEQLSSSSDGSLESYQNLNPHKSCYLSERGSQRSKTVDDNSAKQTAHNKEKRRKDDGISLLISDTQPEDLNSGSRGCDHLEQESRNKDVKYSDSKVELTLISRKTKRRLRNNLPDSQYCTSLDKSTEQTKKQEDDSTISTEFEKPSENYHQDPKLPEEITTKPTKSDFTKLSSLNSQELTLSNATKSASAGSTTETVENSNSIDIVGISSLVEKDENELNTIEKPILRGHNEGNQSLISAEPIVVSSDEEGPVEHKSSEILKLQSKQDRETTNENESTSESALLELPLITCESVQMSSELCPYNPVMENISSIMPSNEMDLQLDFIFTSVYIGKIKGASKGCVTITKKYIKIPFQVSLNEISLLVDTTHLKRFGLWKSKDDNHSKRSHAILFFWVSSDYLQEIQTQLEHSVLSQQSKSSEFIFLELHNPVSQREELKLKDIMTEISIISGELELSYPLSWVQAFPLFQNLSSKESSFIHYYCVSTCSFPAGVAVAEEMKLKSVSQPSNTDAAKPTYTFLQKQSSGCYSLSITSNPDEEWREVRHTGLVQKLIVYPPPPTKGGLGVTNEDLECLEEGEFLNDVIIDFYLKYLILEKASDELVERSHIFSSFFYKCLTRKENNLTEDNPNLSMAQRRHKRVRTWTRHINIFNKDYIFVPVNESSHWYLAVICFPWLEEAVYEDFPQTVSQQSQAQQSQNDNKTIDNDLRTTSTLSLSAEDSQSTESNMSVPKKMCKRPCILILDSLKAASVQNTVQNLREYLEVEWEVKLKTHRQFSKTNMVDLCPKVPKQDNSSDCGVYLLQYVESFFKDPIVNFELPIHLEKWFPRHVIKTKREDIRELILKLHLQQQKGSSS
It counts as functional.

The target in experiment [5] is T4, Sentrin-specific protease 6 (Homo sapiens, UniProt Q9GZR1).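 Note: Luminescence-based dose-response confirmatory assay of SENP6 inhibition, following up an ultra-high-throughput screen.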
T4 sequence (Q9GZR1 whole entry): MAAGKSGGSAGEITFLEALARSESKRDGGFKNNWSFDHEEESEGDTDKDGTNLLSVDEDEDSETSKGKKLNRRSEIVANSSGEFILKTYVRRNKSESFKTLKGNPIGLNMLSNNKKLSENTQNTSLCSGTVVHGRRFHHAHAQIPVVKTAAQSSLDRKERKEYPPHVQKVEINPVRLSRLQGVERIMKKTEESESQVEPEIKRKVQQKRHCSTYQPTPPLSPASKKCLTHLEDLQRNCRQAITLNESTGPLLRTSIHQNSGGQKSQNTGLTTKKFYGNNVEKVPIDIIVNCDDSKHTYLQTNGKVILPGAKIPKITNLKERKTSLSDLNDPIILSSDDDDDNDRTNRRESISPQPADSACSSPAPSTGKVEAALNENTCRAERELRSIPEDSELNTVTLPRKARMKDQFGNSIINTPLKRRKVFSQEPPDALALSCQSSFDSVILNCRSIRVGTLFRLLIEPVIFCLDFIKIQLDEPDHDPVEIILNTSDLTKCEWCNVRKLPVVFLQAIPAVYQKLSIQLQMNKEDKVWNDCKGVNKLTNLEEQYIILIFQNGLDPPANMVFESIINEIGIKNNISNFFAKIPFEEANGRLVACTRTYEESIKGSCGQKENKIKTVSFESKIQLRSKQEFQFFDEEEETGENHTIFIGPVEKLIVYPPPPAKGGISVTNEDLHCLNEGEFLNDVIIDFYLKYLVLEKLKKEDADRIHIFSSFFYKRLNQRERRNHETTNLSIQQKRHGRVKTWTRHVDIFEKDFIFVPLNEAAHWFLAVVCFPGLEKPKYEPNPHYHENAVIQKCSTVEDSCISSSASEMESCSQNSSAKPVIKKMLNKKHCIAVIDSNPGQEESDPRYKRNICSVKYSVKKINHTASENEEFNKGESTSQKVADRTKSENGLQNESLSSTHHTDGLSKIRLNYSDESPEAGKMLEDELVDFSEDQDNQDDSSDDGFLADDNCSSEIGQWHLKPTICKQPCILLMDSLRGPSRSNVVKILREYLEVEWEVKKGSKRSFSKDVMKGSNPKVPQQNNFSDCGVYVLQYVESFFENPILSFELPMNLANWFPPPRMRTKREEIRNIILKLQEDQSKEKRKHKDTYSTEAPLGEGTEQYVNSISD
It counts as functional.

Experiment [6] deals with T5, Sentrin-specific protease 8 (Homo sapiens, UniProt Q96LD8).
T5 sequence (Q96LD8 whole entry): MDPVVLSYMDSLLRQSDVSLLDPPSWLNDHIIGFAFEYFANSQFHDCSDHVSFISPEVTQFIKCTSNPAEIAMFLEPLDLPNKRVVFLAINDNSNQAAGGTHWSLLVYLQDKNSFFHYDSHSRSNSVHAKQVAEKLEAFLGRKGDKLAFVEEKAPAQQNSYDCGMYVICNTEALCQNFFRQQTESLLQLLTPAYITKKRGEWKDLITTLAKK
Type of experiment: functional.

Experiment [7] in a line: growth inhibition of yeast DHODH-expressing 3D7 parasites – SYBR Green, dry powder samples, dose response (AID 1159570).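 Note: parasite growth measured after 72 hours of compound exposure.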 Type of experiment: functional, cell-based.
Experiment [8] can be described thus: toxicity to human HepG2 hepatoma cells – cell-based, plate reader, dry powder samples, cytotoxicity control, dose response (AID 1159569).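 Note: inhibitor potency with signal falling toward the positive control level.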 Type of experiment: functional.
Experiment [9] can be described thus: P. falciparum Dd2 growth inhibitors, dose response, SYBR Green, cherry-picked samples (AID 1159567). Type of experiment: functional, cell-based.
Experiment [10] is described as follows: Dd2 malaria parasite growth inhibition potency – SYBR Green, dry powder samples, dose response (AID 1159566).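 Note: potency for growth inhibition with lower SYBR green DNA signal.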 Type of experiment: functional, cell-based.
Experiment [11] in a line: growth inhibition of PfATP4-mutant resistant parasites – NITD609-resistant line, SYBR Green, dry powder, dose response (AID 1159571).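 Note: parasites synchronized at ring stage by sorbitol before testing.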 Type of experiment: functional, cell-based.
Experiment [12] deals with Prothrombin (Homo sapiens, UniProt P00734). In words: Thrombin 1536 HTS Dose Response Confirmation. [Related pubchem assays: 1046 (Thrombin 1536 HTS; hits were confirmed in this assay)]. Type of experiment: functional.
Experiment [13] is described as follows: toxicity to human hepatoma HepG2 cells – cell-based, cherry-picked samples, cytotoxicity control, dose response (AID 1159577). It counts as functional.
Experiment [14] concerns the target T6, Protein skinhead-1 (Caenorhabditis elegans, UniProt P34707).
T6 sequence (P34707 whole entry): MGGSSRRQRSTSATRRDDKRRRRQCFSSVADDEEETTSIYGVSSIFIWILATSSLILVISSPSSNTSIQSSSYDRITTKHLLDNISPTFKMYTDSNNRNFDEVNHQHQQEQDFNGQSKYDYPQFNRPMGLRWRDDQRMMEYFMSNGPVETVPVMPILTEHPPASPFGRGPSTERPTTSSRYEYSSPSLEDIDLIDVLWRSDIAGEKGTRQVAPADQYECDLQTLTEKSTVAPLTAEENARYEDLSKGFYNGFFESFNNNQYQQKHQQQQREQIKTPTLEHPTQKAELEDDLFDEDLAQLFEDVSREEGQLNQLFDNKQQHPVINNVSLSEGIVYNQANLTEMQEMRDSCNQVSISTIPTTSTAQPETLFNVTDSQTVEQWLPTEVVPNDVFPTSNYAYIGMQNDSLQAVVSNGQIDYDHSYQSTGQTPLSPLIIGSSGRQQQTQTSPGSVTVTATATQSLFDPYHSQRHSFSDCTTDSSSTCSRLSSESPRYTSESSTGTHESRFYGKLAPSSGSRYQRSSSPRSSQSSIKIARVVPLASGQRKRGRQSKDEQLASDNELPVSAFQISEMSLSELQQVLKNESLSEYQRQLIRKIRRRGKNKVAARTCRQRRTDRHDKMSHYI
It counts as functional.

For experiment [15], the target named is Voltage-dependent T-type calcium channel subunit alpha-1H (Homo sapiens, UniProt O95180). It counts as functional.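 Note: channel activity triggered by adding a high calcium stimulation buffer.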
Chain of Voltage-dependent T-type calcium channel subunit alpha-1H (O95180 whole entry): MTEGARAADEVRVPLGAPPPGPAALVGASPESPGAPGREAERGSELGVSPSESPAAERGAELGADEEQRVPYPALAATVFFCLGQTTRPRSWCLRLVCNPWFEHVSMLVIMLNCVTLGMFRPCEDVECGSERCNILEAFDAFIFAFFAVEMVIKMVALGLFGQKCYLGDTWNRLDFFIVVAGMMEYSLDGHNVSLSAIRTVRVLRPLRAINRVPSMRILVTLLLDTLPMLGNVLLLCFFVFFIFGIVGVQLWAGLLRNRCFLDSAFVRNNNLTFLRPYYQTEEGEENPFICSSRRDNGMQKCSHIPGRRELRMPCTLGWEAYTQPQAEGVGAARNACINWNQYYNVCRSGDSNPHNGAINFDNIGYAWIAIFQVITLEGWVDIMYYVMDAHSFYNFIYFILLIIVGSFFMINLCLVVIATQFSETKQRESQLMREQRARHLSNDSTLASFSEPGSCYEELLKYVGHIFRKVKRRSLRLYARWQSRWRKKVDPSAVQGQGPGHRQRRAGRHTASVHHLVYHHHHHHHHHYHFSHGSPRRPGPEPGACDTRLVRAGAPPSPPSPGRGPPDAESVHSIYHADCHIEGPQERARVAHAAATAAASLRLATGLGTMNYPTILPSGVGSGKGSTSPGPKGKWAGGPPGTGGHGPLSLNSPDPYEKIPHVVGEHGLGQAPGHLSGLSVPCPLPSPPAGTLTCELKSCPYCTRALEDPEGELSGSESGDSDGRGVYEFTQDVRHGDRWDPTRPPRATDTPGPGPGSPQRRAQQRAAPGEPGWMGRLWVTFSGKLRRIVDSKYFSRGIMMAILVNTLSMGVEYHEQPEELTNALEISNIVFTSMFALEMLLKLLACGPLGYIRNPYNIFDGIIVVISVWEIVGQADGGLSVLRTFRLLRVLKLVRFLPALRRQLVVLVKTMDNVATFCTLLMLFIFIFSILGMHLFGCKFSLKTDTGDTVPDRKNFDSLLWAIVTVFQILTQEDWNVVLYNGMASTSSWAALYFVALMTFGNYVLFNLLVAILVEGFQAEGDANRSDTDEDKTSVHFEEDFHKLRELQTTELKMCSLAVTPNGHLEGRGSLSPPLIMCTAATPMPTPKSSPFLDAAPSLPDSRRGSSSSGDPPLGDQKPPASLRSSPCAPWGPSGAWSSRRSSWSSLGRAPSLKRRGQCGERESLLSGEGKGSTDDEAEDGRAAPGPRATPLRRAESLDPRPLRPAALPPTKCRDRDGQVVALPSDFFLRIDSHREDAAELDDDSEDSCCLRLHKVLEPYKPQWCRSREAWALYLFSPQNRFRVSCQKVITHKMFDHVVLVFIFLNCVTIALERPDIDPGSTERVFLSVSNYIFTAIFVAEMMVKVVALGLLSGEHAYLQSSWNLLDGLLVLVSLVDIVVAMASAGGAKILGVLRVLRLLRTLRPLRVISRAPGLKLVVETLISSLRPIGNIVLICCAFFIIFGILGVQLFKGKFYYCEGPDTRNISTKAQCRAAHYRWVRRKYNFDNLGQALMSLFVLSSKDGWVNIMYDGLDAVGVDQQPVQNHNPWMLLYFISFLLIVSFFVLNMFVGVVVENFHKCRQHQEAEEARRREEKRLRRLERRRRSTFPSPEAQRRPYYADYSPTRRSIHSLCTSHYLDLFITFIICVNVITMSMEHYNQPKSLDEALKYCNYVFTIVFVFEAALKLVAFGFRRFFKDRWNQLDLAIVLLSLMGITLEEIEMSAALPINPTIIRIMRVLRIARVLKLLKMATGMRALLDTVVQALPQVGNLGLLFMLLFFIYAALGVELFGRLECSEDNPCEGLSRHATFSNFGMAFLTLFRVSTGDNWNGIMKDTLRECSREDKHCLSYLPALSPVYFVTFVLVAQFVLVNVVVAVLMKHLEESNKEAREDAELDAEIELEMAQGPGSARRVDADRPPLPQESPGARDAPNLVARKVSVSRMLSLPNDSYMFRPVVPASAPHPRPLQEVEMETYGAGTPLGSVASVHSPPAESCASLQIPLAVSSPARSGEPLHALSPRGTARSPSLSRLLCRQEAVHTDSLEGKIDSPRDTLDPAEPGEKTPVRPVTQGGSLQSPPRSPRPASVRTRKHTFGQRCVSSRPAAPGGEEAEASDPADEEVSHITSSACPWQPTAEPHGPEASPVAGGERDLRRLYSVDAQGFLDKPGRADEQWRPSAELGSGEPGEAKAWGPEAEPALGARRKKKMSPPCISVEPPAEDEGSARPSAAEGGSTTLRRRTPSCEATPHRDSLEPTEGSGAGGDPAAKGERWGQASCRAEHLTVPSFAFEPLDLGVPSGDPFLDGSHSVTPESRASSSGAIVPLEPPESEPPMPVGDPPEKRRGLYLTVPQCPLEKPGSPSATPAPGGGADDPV

Chain of Cytochrome P450 3A4 (P08684 whole entry): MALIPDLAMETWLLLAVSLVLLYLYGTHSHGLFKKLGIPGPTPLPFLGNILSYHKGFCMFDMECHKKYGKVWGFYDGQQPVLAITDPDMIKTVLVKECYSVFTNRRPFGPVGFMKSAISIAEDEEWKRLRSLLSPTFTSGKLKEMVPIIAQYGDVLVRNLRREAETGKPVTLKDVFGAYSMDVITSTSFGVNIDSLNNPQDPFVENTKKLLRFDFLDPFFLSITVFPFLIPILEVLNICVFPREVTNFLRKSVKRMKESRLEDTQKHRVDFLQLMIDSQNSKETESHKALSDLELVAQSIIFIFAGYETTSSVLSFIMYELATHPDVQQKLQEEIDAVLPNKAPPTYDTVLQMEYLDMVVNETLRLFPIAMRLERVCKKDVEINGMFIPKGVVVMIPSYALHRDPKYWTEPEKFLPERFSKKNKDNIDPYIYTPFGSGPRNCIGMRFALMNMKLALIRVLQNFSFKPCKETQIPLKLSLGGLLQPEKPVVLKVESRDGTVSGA

By AC50 is commonly meant the concentration giving half of the maximal activity seen. Turning to `COCCNC(=O)C1(CC(C)C)C=CCN1C(=O)OC` (stereo unspecified), the AC50 in [1] is 0.1 µM (inconclusive).
By IC50 is commonly meant the concentration at which inhibition is half-maximal. Regarding `COc1ccc(Cl)cc1N(CC(=O)NC(C)(C)C)S(=O)(=O)c1ccc(C)c([N+](=O)[O-])c1`, the IC50 in experiment [2] was 12.7 µM (not active).
On to `O=C(Nc1ccc2c(c1)CCC2)c1cccc(S(=O)(=O)Nc2ccccc2Cl)c1`, for which the IC50 in experiment [2] was 6.7 µM (not active); in experiment [3], 70.3 µM (active); in experiment [4] it was 23.9 µM (active); in experiment [5], 47.3 µM (active); in experiment [6], 92.9 µM (active).
Turning to `O=C(Nc1ccccc1)N1CCCCN2[C@H](CO)[C@H](c3ccc(C#Cc4ccccc4)cc3)[C@@H]2C1`, the AC50 in experiment [7] was 0.0378 µM (active); in experiment [8] it was > 100 µM (inactive); in experiment [9] it was < 0.3 µM (active); in [10], 0.0425 µM (active); in [11], 0.0386 µM (active).
For the molecule `CCN(CC)C(=O)Cn1cc(C(=O)C(=O)NCCCn2ccnc2)c2ccccc21`, the IC50 in experiment [12] is given as > 50 µM (not active).
On to `COc1ccc2c3c(n(C)c2c1)[C@@H](CO)N(C(=O)CN(C)C)CC31CCN(Cc2cccnc2)CC1`, for which the AC50 in experiment [7] is 2.3 µM (active); in experiment [8], 64.4 µM (active); in [9] it was 2.9 µM (active); in experiment [10] it was 2.61 µM (active); in [13], > 39 µM (inactive); in experiment [11] it was 4.01 µM (active).
As for `CC1(C)CCCC2(C)C3C(O)CC2(C)C(O)C31` (stereo unspecified), in experiment [1], the AC50 was 31.6 µM (inconclusive).
On to `NC(=NOC(=O)c1cccc(Cl)c1)c1cccnc1`, for which the IC50 in experiment [12] is > 50 µM (not active); in experiment [14] it was 86.4 µM (inactive).
Regarding `CCCN1CCC2(CC1)CN(Cc1ccccc1OC)[C@H](CO)c1c2c2ccc(OC)cc2n1C`, the AC50 in experiment [7] was 1.49 µM (active); in experiment [8] it was 25.7 µM (active); in [9], 2.22 µM (active); in experiment [10], 0.681 µM (active); in experiment [13], > 39 µM (inactive); in experiment [11], 0.888 µM (active).
Broadly, the EC50 is the midpoint of the concentration-response curve. As to `COc1ccc(C(=O)N(Cc2nc(-c3ccc(C)cc3)no2)C2CCCCC2)cc1OC`, the IC50 in [2] is given as 10.8 µM (not active). Further, the EC50 in experiment [15] was 8.02 µM (active).
Take `CCCC(=O)n1nc(-c2ccc(C)cc2)nc1NCc1ccco1`: the IC50 in [12] is 11.1 µM (active).
As to `CCOC(=O)Cn1c(=O)oc2cc(S(=O)(=O)NCCc3ccc(C)cc3)ccc21`, in [12], the IC50 is listed as > 50 µM (not active).
As for `COc1cccc(C#Cc2ccc([C@@H]3[C@@H](CO)N4C(=O)CN(C(=O)c5ccccc5)C[C@@H]34)cc2)c1`, the AC50 in experiment [7] was 2.23 µM (active); in [9] it was 2.3 µM (active); in experiment [10] it was 1.19 µM (active); in [13] it was > 39 µM (inactive); in experiment [11], 1.53 µM (active).
For `CCOC(=O)C1=CC(OC(CC)CC)C(NC(C)=O)C(N)C1` (stereo unspecified), the AC50 in [1] is 25.1 µM (inconclusive).
As to `Nc1nc(-c2ccco2)nn1C(=O)c1cccnc1`, the IC50 in experiment [12] was 0.589 µM (active).
As to `CO[C@@H]1CN(C)C(=O)c2cc(NC(=O)c3nc4ccccc4s3)ccc2OC[C@@H](C)N(Cc2ccncc2)C[C@H]1C`, the concentration at half-maximal activity (AC50) in experiment [9] is 5.88 µM (active); in [13], 24.5 µM (active).
With `O=C(N/N=C\c1ccccc1O)c1ccccc1O`, the AC50 in experiment [1] is 6.31 µM (inconclusive).
As to `Cc1cccc(-c2ccc([C@@H]3[C@H](CO)N4CCCCN(S(=O)(=O)c5ccccc5C)C[C@@H]34)cc2)c1`, the AC50 is 0.845 µM (active) in [9] and 9.3 µM (active) in [13].
Regarding `COc1ccccc1N1CCN(CC(O)COc2ccc3c(c2)OCO3)CC1` (stereo unspecified), in [2], the IC50 is > 50 µM (not active).
`Cc1c(C(=O)N2c3ccccc3Sc3ccccc32)cccc1[N+](=O)[O-]`: the IC50 in experiment [2] is on record as 2.4 µM (not active).
